This is an account of results in US20090048210A1, “AGENT FOR THERAPY OR TREATMENT OF WOUND” (priority 2004, published 2009).

The subject of assay [1] is normal human neonatal prepuce epidermis keratinized cells (NHEK(F)). The assay can be described thus: Human epidermis keratinized cell proliferation assay (WST-8 cell counting). The class given is cell-based. The note with it: for overall effect on cell proliferation ability as compared with the control: summary of the 24 and 48 hour experiments. The protocol: Human epidermis keratinized cells were cultured in the presence of chitin and chitosan as well as their derivatives, and change in proliferation ability of the cell was measured.
As the human epidermis cell, normal human neonatal prepuce epidermis keratinized cells (NHEK(F)) (Kurabo Biomedical, Osaka) were used.
A medium used for measuring NHEK(F) proliferation effect was obtained by adding 1 ml of a PSA solution (Kurabo Biomedical, Osaka) containing penicillin, streptomycin and amphoterin B, and 10% bovine fetus serum (Gibco, USA) to 500 ml of a basic medium for human epidermis keratinized cell HuMedia-KB2 (Kurabo Biomedical, Osaka).
Cells were cultured under 37° C., 5% CO2 and wet environments using a medium for proliferation and a flask for culturing (Lot No. 055522) (Nalge Nunc International, Denmark), and passed to quaternary culture and used in an experiment.
The medium was aspirated when proliferation of cells reach sub-confluent (60 to 80% of the flask bottom area), then, inside of the vessel was washed with HEPES, and 2 ml of trypsin was added to cause release of cells from the vessel bottom. The released cells were recovered by HEPES and added into the neutralization solution to terminate the reaction of trypsin, and then, precipitated by centrifugal separation (1100 rpm, 5 minutes), and the supernatant was discarded. The recovered cells were re-floated on a medium for proliferation, the live cell number was counted by a trypan blue discharge test, and then, transplanted into another flask for culturing so that the live cell concentration to the flask bottom area was […].
For measurement, cells were centrifugally separated, then, re-floated on a medium for measurement and adjusted at 30000 cells/ml to give a cell suspension which was then used.
Into each well of a 96-well multi-plate (Sumitomo Bakelite Co. Ltd., Tokyo), the cell suspension prepared in (1) was disseminated each in an amount of 100 μl at a concentration of 3000 cells/well. For stabilizing disseminated cells, previous culturing was carried out for 12 hours under 37° C., 5% CO2 and wet environments.
Next, into each well of the multi-plate, the chitin-based samples or chitosan-based samples controlled at respective concentrations were added each in an amount of 10 μl. The final concentrations of respective samples in this operation were 100, 10, 1 and 0.1 μg/ml, respectively. True culturing was carried out for 24 hours or 48 hours under 37° C., 5% CO2 and wet environments.
For counting the number of cells proliferated in the culturing, a reagent for measuring cell number (cell counting kit) WST-8 was added in an amount of 10 μl to each well of the multi-plate, and allowed to stand still under 37° C., 5% CO2 and wet environments for 1 to 4 hours to cause coloration. After coloration, the absorbance was measured using EASY READER EAR340AT (Medi-Con Corporation, Osaka). Numerical treatment and statistics of the measured data were carried out using a table calculation software (Microsoft Excel xp (R)).
The cell number and absorbance show a proportional correlation (FIG. 2, Table 2), and this graph gave a calibration curve:
A cell number in dissemination of 3000 was subtracted from the cell number obtained from this calibration curve to give a proliferated cell number (cells/well).
On the technique in general: Tetrazolium dyes change colour on reduction, which living cells bring about.

In another assay the test system is skin deficient wound. The assay can be described thus: Skin deficient wound mouse model, skin regeneration. The format is in vivo. The protocol: Fresh skin deficient wound was made using mice and a skin regeneration promoting effect of GlcNAc was studied. As a control, chitin in the form of gel (Chitosan Kowa K.K.) and physiological saline were used. (i) Eight 8-weeks female mice: BALB/c having a body weight of 20 to 25 g were used. In the experiment, one week-conditioning period was set. (ii) An N-acetyl-D-glucosamine (GlcNAc) powder (Seikagaku Kogyo K.K., Tokyo) was diluted in physiological saline so that its concentration was 10 mg/ml, and then, sterilized by filtration through a 0.22 μm millipore filter to give stock solution the stock solution was then diluted with sterile physiological saline to 10 μg/ml and used. (iii) chitin in the form of gel (Chitosan Kowa, Tokyo). Hereinafter, referred to as “chitin gel”. (iv) GlcNAc was blended in chitin gel so that its concentration was 10 μg/g and the blend was used. Hereinafter, the blend is referred to as “chitin gel+GlcNAc”. (i) Production of skin deficient model: Pentobarbital (trade name: Nembutal injection) was diluted 10-fold with physiological saline, and then, administered intraperitoneally to a mouse at 0.005 ml/g. After a sufficient anesthetic effect was confirmed, hair at the back of the mouse was shaved by a hair clipper, and the skin was disinfected with alcohol, and then, a round skin deficient region having a diameter of 5 mm was made using a 5 mm derma punch (FIG. 9). These eight mice were classified into “chitin gel group”, “chitin gel+GlcNAc group”, “GlcNAc group” and “physiological saline group” each containing two mice, and each group was applied once a day. (ii) “chitin gel group” and “chitin gel+GlcNAc group” were directly applied to the skin deficient region for 7 days each at 0.1 g/head, and “GlcNAc group” and “physiological saline group” were each at 1 ml/head. (iii) On 8th and later days, the crust formed was removed directly before application of each group, and application was carried out for further 8 days in the same manner as described above. The size of the skin damage repair region was measured on 8th and 16th days using calipers. Staining method: The skin deficiency repair region was collected, and fixed with a 10% neutral buffer formalin aqueous solution (formaldehyde solution). The repair region was excised to give a longitudinal section, and then, embedded in paraffin according to an ordinary method and sliced into 5 μm by a microtome. It was stained by hematoxylin-eosin staining.

The mark [2] stands for this setting: 24 hours after addition, 0.1 μg/ml.
Setting [3] is: 24 hours after addition, 1 μg/ml.
Setting [4] is: 24 hours after addition, 10 μg/ml.
[5] abbreviates: 24 hours after addition, 100 μg/ml.
Setting [6] is: 48 hours after addition, 0.1 μg/ml.
Setting [7] is: 48 hours after addition, 1 μg/ml.
Setting [8] is: 48 hours after addition, 10 μg/ml.
[9] abbreviates: 48 hours after addition, 100 μg/ml.
Where [10] appears, read: 5 mm skin deficient region, applied once a day for 16 days.
The mark [11] stands for this setting: hematoxylin-eosin staining of the repair region.

Each structure is given as a SMILES string.

As to `CC(=O)N[C@H]1C(O)O[C@H](CO)[C@@H](O)[C@@H]1O` (stereo partly drawn) [GlcNAc, N-Acetyl-D-Glucosamine], the “average cell proliferation number” value in assay [1] (setting [2]) was found to be 601 ± 39 cell/well; in assay [1] (setting [3]) it was 774 ± 158 cell/well; in assay [1] (setting [4]), 636 ± 51 cell/well; in assay [1] (setting [5]), 628 ± 73 cell/well; in assay [1] (setting [6]), 1312 ± 169 cell/well; in assay [1] (setting [7]), 2372 ± 415 cell/well. Also, the “average cell proliferation number” value in assay [1] (setting [8]) is 2155 ± 175 cell/well; in assay [1] (setting [9]), 2128 ± 165 cell/well. Moreover, the “proliferation effect as compared with the control (p<0.05)” value was “significant proliferation stimulating effects” in assay [1] (24 hours, 1 μg/ml); “significant proliferation stimulating effects” in assay [1] (24 hours, 10 μg/ml); “significant proliferation stimulating effects” in assay [1] (24 hours, 100 μg/ml); “significant proliferation stimulating effects” in assay [1] (48 hours, 1 μg/ml); “significant proliferation stimulating effects” in assay [1] (48 hours, 10 μg/ml); “significant proliferation stimulating effects” in assay [1] (48 hours, 100 μg/ml). Besides, in assay [1], the “overall effect on cell proliferation ability as compared with the control” value is reported as “significant effect of stimulating cell proliferation ability”. Moreover, in the assay on skin deficient wound (setting [10]), the “visual observation: epidermis / skin formation” value was “complete cutization was recognized”. Besides, the “visual observation: excess granulation” value in the assay on skin deficient wound (setting [10]) is on record as “excess granulation did not occur”. In addition, the “overall skin regenerating effect in a mouse” value in the assay on skin deficient wound (compared with physiological saline and chitin gel) is “more excellent than physiological saline and chitin gel”. Moreover, in the assay on skin deficient wound (setting [11]), the “histological observation: hypodermis” value is reported as “leaves a slight granulation tissue at the center portion”. Further, the “histological observation: regeneration of skin / epidermis” value with skin deficient wound (setting [11]) is “skin regeneration is completed”.

Consider `N[C@H]1C(O)O[C@H](CO)[C@@H](O)[C@@H]1O` (stereo partly drawn) [GlcN, D-Glucosamine, reference compound], for which the “average cell proliferation number” value is 587 ± 134 cell/well in assay [1] (setting [2]); 766 ± 114 cell/well in assay [1] (setting [3]); 634 ± 65 cell/well in assay [1] (setting [4]); 689 ± 34 cell/well in assay [1] (setting [5]); 1616 ± 244 cell/well in assay [1] (setting [6]); 2108 ± 344 cell/well in assay [1] (setting [7]). Moreover, the entries for the “average cell proliferation number” value in assay [1] (setting [8]) and in assay [1] (setting [9]) were 1839 ± 160 cell/well and 1758 ± 424 cell/well, respectively. Besides, the “proliferation effect as compared with the control (p<0.05)” value in assay [1] (24 hours, 1 μg/ml) is recorded as “significant proliferation stimulating effects”; in assay [1] (24 hours, 10 μg/ml), “significant proliferation stimulating effects”; in assay [1] (24 hours, 100 μg/ml), “significant proliferation stimulating effects”; in assay [1] (48 hours, 1 μg/ml), “significant proliferation stimulating effect”. Further, in assay [1], the “overall effect on cell proliferation ability as compared with the control” value is reported as “significant effect of stimulating cell proliferation ability”.
